We go through three compounds from US4327097A, “Novel penicillins” (Toyama Chemical Co., Ltd., priority 1974, dated 1982).

One series deals with Proteus mirabilis. Kind of series: MIC against clinical isolates. It is filed as cell-based. As to conditions: unit assumed.
The next series relates to Staphylococcus aureus. Kind of series: MIC against clinical isolates. The series is classed as cell-based. As to conditions: unit assumed.
The next series concerns Proteus vulgaris 3027. Kind of series: MIC, plate method, standard strains. The series is classed as cell-based. To be noted: unit assumed. An outline of the steps:
(§1)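 Minimum inhibitory concentrations are determined by agar plate dilution using Heart infusion agar (pH 7.4). Each plate receives an inoculum of 10^4 cells.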

Series [1] relates to Staphylococcus aureus 209p. The series can be described thus: MIC, plate method, standard strains. It is filed as cell-based. As to conditions: unit assumed. The method, boiled down:
as §1

Series [2] has as its system Klebsiella pneumoniae. Kind of series: MIC, plate method, standard strains. The series is classed as cell-based. To be noted: unit assumed. The method, boiled down:
as §1

The test system of another series is Escherichia coli NIHJ. The series can be described thus: MIC, plate method, standard strains. The series is classed as cell-based. As to conditions: unit assumed. The method, boiled down:
as §1

The subject of series [3] is Pseudomonas aeruginosa I.F.O. Kind of series: MIC, plate method, standard strains. The series is classed as cell-based. To be noted: unit assumed. An outline of the steps: as §1
For the next series, the system named is Shigella flexneri. Kind of series: MIC against clinical isolates. The series is classed as cell-based. To be noted: Table 5-5, clinical isolate; unit assumed. How it is done:
(§2) The minimum inhibitory concentration (MIC) was determined by the plate method disclosed in "Chemotherapy" (Japan), Vol. 16, (1968), pages 98-99. The culture medium used was a Heart infusion agar (pH 7.4). The number of the cells per plate used in the inoculum was 10^4 (10^6 cells/ml).
(§3) MIC was determined in the same manner as in the preceding paragraph (1).

Another series deals with Shigella sonnei. Kind of series: MIC against clinical isolates. It is filed as cell-based. To be noted: Table 5-5, clinical isolate; unit assumed. On the procedure: as §2, §3
In series [4] the test system is Klebsiella pneumoniae. The series can be described thus: MIC against clinical isolates. To be noted: unit assumed. The series is classed as cell-based.
In a further series the test system is Proteus rettgeri. The series can be described thus: MIC against clinical isolates. It is filed as cell-based. To be noted: unit assumed.
A further series has as its system Pseudomonas aeruginosa. The series can be described thus: MIC against clinical isolates. The series is classed as cell-based. As to conditions: unit assumed; for MIC Pseudomonas aeruginosa GN: strain number not given.
The test system of another series is Proteus vulgaris. The series can be described thus: MIC against clinical isolates. The series is classed as cell-based. As to conditions: unit assumed.
Series [5] relates to β-lactamase, Pseudomonas aeruginosa GN 238. Kind of series: Resistant activity against β-lactamase, iodometric assay. It is filed as biochemical. As to conditions: β-lactamase from Pseudomonas aeruginosa GN 238; Potassium Penicillin G = 100. An outline of the steps: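 Crude β-lactamase was the sonicated-cell supernatant from P. aeruginosa GN 238, grown 6 h at 37 °C and washed in 0.1 M phosphate pH 7.0. Compound stability to the enzyme measured iodometrically; values are relative activity with potassium penicillin G set at 100.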

In the next series the test system is Salmonella typhi-murium. Kind of series: MIC against clinical isolates. To be noted: Table 5-5, clinical isolate; unit assumed. It is filed as cell-based.
The test system of the next series is Escherichia coli. Kind of series: MIC against clinical isolates. It is filed as cell-based. To be noted: unit assumed.
The next series relates to mouse. The series can be described thus: Toxicity, LD50 i.v. in mouse. The series is classed as in vivo. As to conditions: i.v. in mouse having a weight of 19±1 g. From the text:
The present penicillins and cephalosporins have generally low toxicity.

A further series deals with Proteus morganii. Kind of series: MIC against clinical isolates. The series is classed as cell-based. As to conditions: Table 6-5, clinical isolate; unit assumed.
Series [6] concerns the target β-lactamase, Escherichia freundii GN 346 (Citrobacter freundii, UniProt Q46041). The series can be described thus: Resistant activity against β-lactamase, iodometric assay. To be noted: control Cephalorizine = 100. The series is classed as biochemical. An outline of the steps: (§4)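 β-Lactamase was induced with Penicillin G (50 μg/ml) in shaking cultures at 37° C, and crude enzyme was taken as sonicated-cell supernatant in 0.1 M phosphate buffer pH 7.0. Compound stability was measured iodometrically. Values are relative activity, with control Cephalorizine set as 100.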

Series [7] addresses T1, β-lactamase, Proteus vulgaris GN 76 (Proteus vulgaris, UniProt P52664).
T1 construct: By using the supernatant of enzyme fluid; endogenous in cells; host or cells: Proteus vulgaris GN 76 (penicillin G-induced cells, sonicated, 15,000 r.p.m. supernatant)
Described as above. To be noted: control Cephalorizine = 100. The series is classed as biochemical. An outline of the steps: as §4

In brackets after ≈: the same amount, converted by molar mass.

β-lactamase, Escherichia freundii GN 346, sequence (Q46041 entry or part of it): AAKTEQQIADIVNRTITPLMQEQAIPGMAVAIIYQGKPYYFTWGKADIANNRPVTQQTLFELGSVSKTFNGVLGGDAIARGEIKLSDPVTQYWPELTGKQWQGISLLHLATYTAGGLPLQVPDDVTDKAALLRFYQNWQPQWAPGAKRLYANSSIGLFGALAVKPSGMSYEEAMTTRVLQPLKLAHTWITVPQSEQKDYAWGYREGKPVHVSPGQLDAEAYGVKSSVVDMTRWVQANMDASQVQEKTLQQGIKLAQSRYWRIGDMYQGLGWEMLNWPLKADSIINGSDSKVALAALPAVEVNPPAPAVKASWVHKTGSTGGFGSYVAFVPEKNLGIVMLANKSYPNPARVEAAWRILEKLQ
T1 sequence (P52664 30-300): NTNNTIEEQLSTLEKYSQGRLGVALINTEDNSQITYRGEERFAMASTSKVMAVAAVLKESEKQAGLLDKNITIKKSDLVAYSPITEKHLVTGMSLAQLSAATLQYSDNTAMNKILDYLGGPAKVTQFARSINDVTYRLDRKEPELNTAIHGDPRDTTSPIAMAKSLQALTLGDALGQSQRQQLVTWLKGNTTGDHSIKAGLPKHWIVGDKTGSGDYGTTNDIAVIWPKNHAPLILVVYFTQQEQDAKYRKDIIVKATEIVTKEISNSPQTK

In turn, `CC(C)N1CCN(C(=O)NC(C(=O)NC2C(=O)N3C2SC(C)(C)C3C(=O)O)c2ccccc2)C(=O)C1=O` (single isomer, unassigned) [Compound 40] gave an MIC Proteus mirabilis against Proteus mirabilis (Table 5-6, clinical isolate) of less than 0.4 mg/L. Further, in the series with Staphylococcus aureus (Table 5-1, clinical isolate), the MIC Staphylococcus aureus F-1 was found to be 6.25 mg/L (≈ 11.8 µM), the MIC Staphylococcus aureus F-2 is 3.13 mg/L (≈ 5.89 µM), the MIC Staphylococcus aureus F-4 was 6.25 mg/L (≈ 11.8 µM) and the MIC Staphylococcus aureus F-5 is more than 200 mg/L. For the same compound, in the series with Staphylococcus aureus (Table 5-1, clinical isolate), the MIC Staphylococcus aureus MS 8588 is 3.13 mg/L (≈ 5.89 µM), the MIC Staphylococcus aureus MS 8596 was found to be 3.13 mg/L (≈ 5.89 µM) and the MIC Staphylococcus aureus MS 8684 is 3.13 mg/L (≈ 5.89 µM). In the series on Proteus vulgaris 3027 (Table 3, standard strain), the MIC Proteus vulgaris 3027 turned out to be 0.4 mg/L (≈ 0.752 µM). In [1] (Table 3, standard strain, Heart infusion agar pH 7.4), this compound yielded an MIC Staphylococcus aureus 209p of 0.4 mg/L (≈ 0.752 µM). Besides, the MIC Klebsiella pneumoniae with Klebsiella pneumoniae [2] (Table 3, standard strain) came to 3.13 mg/L (≈ 5.89 µM). In the series on Escherichia coli NIHJ (Table 3, standard strain), this compound had an MIC Esche--richin coil NIHJ of less than 0.1 mg/L. Besides, the MIC Pseudomonas aeruginosa I.F.C in series [3] (Table 3, standard strain) worked out at 6.25 mg/L (≈ 11.8 µM). In the series on Shigella flexneri, this compound gave an MIC Shigella flexneri JS 11215 of 50 mg/L (≈ 94.1 µM) and an MIC Shigella flexneri JS 11839 of 3.13 mg/L (≈ 5.89 µM). For the same compound, in the series on Shigella sonnei, the MIC Shigella sonnei JS 11232 was 50 mg/L (≈ 94.1 µM) and the MIC Shigella sonnei JS 11755 is 3.13 mg/L (≈ 5.89 µM). In the series on Klebsiella pneumoniae [4] (Table 5-4, clinical isolate), this compound returned an MIC Klebsiella pneumoniae GN 917 of 6.25 mg/L (≈ 11.8 µM), an MIC Klebsiella pneumoniae GN 4081 of 100 mg/L (≈ 188 µM) and an MIC Klebsiella pneumoniae GN 4117 of 50 mg/L (≈ 94.1 µM). This compound also had an MIC Proteus rettgeri against Proteus rettgeri (Table 5-6, clinical isolate) of 6.25 mg/L (≈ 11.8 µM). Also, in the series on Pseudomonas aeruginosa (Table 5-3, clinical isolate), the MIC Pseudomonas aeruginosa GN stood at 6.25 mg/L (≈ 11.8 µM), the MIC Pseudomonas aeruginosa GN 82 turned out to be 6.25 mg/L (≈ 11.8 µM), the MIC Pseudomonas aeruginosa GN 163 turned out to be 6.25 mg/L (≈ 11.8 µM) and the MIC Pseudomonas aeruginosa GN 221 turned out to be 6.25 mg/L (≈ 11.8 µM). Moreover, in the series on Pseudomonas aeruginosa (Table 5-3, clinical isolate), the MIC Pseudomonas aeruginosa GN 376 is 3.13 mg/L (≈ 5.89 µM), the MIC Pseudomonas aeruginosa GN 383 turned out to be 6.25 mg/L (≈ 11.8 µM), the MIC Pseudomonas aeruginosa GN 1091 is 6.25 mg/L (≈ 11.8 µM) and the MIC Pseudomonas aeruginosa GN 2987 was 3.13 mg/L (≈ 5.89 µM). For the same compound, the MIC Proteus vulgaris against Proteus vulgaris (Table 5-6, clinical isolate) is less than 0.4 mg/L. The “Relative activity (%), resistant activity against β-lactamase” value in [5] is given as 15%. The compound further returned an MIC Salmonella typhi-murium SL 2136 with Salmonella typhi-murium of more than 200 mg/L. In the series on Escherichia coli (Table 5-2, clinical isolate), this compound gave an MIC Escherichia coli GN 3452 of 1.57 mg/L (≈ 2.95 µM), an MIC Escherichia coli GN 3465 of 50 mg/L (≈ 94.1 µM), an MIC Escherichia coli GN 3481 of 1.57 mg/L (≈ 2.95 µM) and an MIC Escherichia coli GN 3611 of more than 200 mg/L. In the series with Escherichia coli (Table 5-2, clinical isolate), this compound gave an MIC Escherichia coli K-1 of 1.57 mg/L (≈ 2.95 µM), an MIC Escherichia coli K-2 of 3.13 mg/L (≈ 5.89 µM) and an MIC Escherichia coli K-3 of more than 200 mg/L.
In the case of `CCN1CCN(C(=O)N[C@@H](C(=O)N[C@@H]2C(=O)N3[C@@H]2SC(C)(C)[C@@H]3C(=O)O)c2ccccc2)C(=O)C1=O`, the LD50 result in the series on mouse is reported as “greater than 5 g/kg”.
Compound `CCCCCCCCN1CCN(C(=O)N[C@@H](C(=O)NC2C(=O)N3C(C(=O)O)=C(CSc4nnnn4C)CSC23)c2ccccc2)C(=O)C1=O` (single isomer, unassigned) [Compound No. 74] had an MIC Proteus mirabilis in the series on Proteus mirabilis (Table 6-5, clinical isolate) of 0.39 mg/L (≈ 0.546 µM). In the series with Staphylococcus aureus (Table 6-1, clinical isolate), the MIC Staphylococcus aureus F-1 came to 0.78 mg/L (≈ 1.09 µM), the MIC Staphylococcus aureus MS 8588 is 0.78 mg/L (≈ 1.09 µM), the MIC Staphylococcus aureus MS 8596 stood at 0.78 mg/L (≈ 1.09 µM) and the MIC Staphylococcus aureus MS 8619 stood at 0.78 mg/L (≈ 1.09 µM). Also, the MIC Staphylococcus aureus MS 8684 in the series on Staphylococcus aureus (Table 6-1, clinical isolate) came to 0.78 mg/L (≈ 1.09 µM). This compound returned an MIC Proteus morganii with Proteus morganii of 0.78 mg/L (≈ 1.09 µM). Further, the MIC Proteus vulgaris 3027 with Proteus vulgaris 3027 (Table 4, standard strain) came out at 1.57 mg/L (≈ 2.2 µM). Also, in [1] (Table 4, standard strain), the MIC Staphylococcus aureus 209p came to 1.57 mg/L (≈ 2.2 µM). The MIC Klebsiella pneumoniae in the series with Klebsiella pneumoniae [2] (Table 4, standard strain) was 0.79 mg/L (≈ 1.11 µM). The MIC Escherichia coli NIHJ against Escherichia coli NIHJ (Table 4, standard strain) was 0.2 mg/L (≈ 0.28 µM). Further, the MIC Pseudomonas aeruginosa I.F.O. in series [3] (Table 4, standard strain) came out at 12.5 mg/L (≈ 17.5 µM). The “Relative activity (%) against β-lactamase, E. freundii GN 346” value in series [6] was 0.03%. Besides, in series [7], the “Relative activity (%) against β-lactamase, Pr. vulgaris GN 76” value worked out at 5%. Also, in the series on Klebsiella pneumoniae [4] (Table 6-4, clinical isolate), the MIC Klebsiella pneumoniae GN 917 came to 1.56 mg/L (≈ 2.19 µM) and the MIC Klebsiella pneumoniae GN 4081 was found to be 1.56 mg/L (≈ 2.19 µM). Moreover, the MIC Proteus rettgeri against Proteus rettgeri (Table 6-5, clinical isolate) is 6.25 mg/L (≈ 8.76 µM). Also, in the series with Pseudomonas aeruginosa (Table 6-3, clinical isolate), the MIC Pseudomonas aeruginosa GN was 25 mg/L (≈ 35 µM), the MIC Pseudomonas aeruginosa GN4 was determined as 50 mg/L (≈ 70 µM), the MIC Pseudomonas aeruginosa GN 82 is 25 mg/L (≈ 35 µM) and the MIC Pseudomonas aeruginosa GN 221 came out at 50 mg/L (≈ 70 µM). Also, in the series on Pseudomonas aeruginosa (Table 6-3, clinical isolate), the MIC Pseudomonas aeruginosa GN 376 was 50 mg/L (≈ 70 µM), the MIC Pseudomonas aeruginosa GN 1035 is 25 mg/L (≈ 35 µM), the MIC Pseudomonas aeruginosa GN 1091 turned out to be 25 mg/L (≈ 35 µM) and the MIC Pseudomonas aeruginosa GN 2565 stood at 50 mg/L (≈ 70 µM). This compound showed an MIC Pseudomonas aeruginosa S-1 against Pseudomonas aeruginosa (Table 6-4, clinical isolate) of 50 mg/L (≈ 70 µM). Moreover, the MIC Proteus vulgaris against Proteus vulgaris (Table 6-5, clinical isolate) came to 0.78 mg/L (≈ 1.09 µM). In the series on Escherichia coli (Table 6-2, clinical isolate), this compound returned an MIC Escherichia coli GN 3435 of 0.78 mg/L (≈ 1.09 µM), an MIC Escherichia coli GN 3452 of 1.56 mg/L (≈ 2.19 µM), an MIC Escherichia coli GN 3465 of 1.56 mg/L (≈ 2.19 µM) and an MIC Escherichia coli K-2 of 3.13 mg/L (≈ 4.38 µM). Besides, the MIC Escherichia coli K-4 in the series with Escherichia coli (Table 6-2, clinical isolate) stood at 1.56 mg/L (≈ 2.19 µM).
